From PubChem BioAssay (NCI)
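96-well plates; 48 h exposure; 5 concentrations. Endpoints by linear interpolation between flanking doses. Not reached: highest tested concentration assigned. GI50 marks 50% less growth. Definition used: TGI = concentration required for complete inhibition of growth.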

Experiments:
Assay in all cases: inhibition of tumour cell growth, NCI panel, 48 h
EKVX NSCLC = tested on: EKVX NSCLC
HCC-2998 colon = tested on: HCC-2998 colon
HOP-92 NSCLC = tested on: HOP-92 NSCLC
IGROV1 ovarian = tested on: IGROV1 ovarian
OVCAR-3 ovarian = tested on: OVCAR-3 ovarian
OVCAR-5 ovarian = tested on: OVCAR-5 ovarian
OVCAR-8 ovarian = tested on: OVCAR-8 ovarian
SW-620 colon = tested on: SW-620 colon
UO-31 renal = tested on: UO-31 renal
786-0 renal = tested on: 786-0 renal
SNB-75 CNS = tested on: SNB-75 CNS
T-47D breast = tested on: T-47D breast

| Structure (SMILES) | TGI (EKVX NSCLC) [µM] | TGI (HCC-2998 colon) [µM] | TGI (HOP-92 NSCLC) [µM] | TGI (IGROV1 ovarian) [µM] | TGI (OVCAR-3 ovarian) [µM] | TGI (OVCAR-5 ovarian) [µM] | TGI (OVCAR-8 ovarian) [µM] | TGI (SW-620 colon) [µM] | TGI (UO-31 renal) [µM] | TGI (786-0 renal) [µM] | TGI (SNB-75 CNS) [µM] | TGI (T-47D breast) [µM] | GI50 (SNB-75 CNS) [µM] | GI50 (EKVX NSCLC) [µM] | GI50 (HOP-92 NSCLC) [µM] | GI50 (OVCAR-3 ovarian) [µM] | GI50 (OVCAR-5 ovarian) [µM] | GI50 (OVCAR-8 ovarian) [µM] | GI50 (T-47D breast) [µM] | GI50 (UO-31 renal) [µM] |
| --- | --- | --- | --- | --- | --- | --- | --- | --- | --- | --- | --- | --- | --- | --- | --- | --- | --- | --- | --- | --- |
| CC(/C=C/c1ncccc1OCCCCCC(=O)O)=N\NC1=NCCN1 | > 100 | > 100 | > 100 | > 100 | > 100 | > 100 | > 100 | > 100 | > 100 | – | – | – | – | – | – | – | – | – | – | – |
| CN(C)C(=S)Nc1nnc(NC23CC4CC(CC(C4)C2)C3)s1 | 59.7 | 35.5 | – | 72.8 | 46.3 | – | > 100 | 38.3 | 25.2 | 38.2 | – | – | – | – | – | – | – | – | – | – |
| C=C1C(=O)OC2/C=C(\C)CC/C=C(/C)CC(OC(=O)/C(=C/CO)CO)C12 (stereo unspecified) | – | 41.3 | 59.9 | > 100 | > 100 | 36.8 | > 100 | 63.1 | 33.8 | 88.8 | > 100 | – | – | – | – | – | – | – | – | – |
| C1CNCCN2CCCNCCN(C1)CC2 | > 100 | – | > 100 | > 100 | > 100 | > 100 | > 100 | > 100 | > 100 | > 100 | > 100 | > 100 | – | – | – | – | – | – | – | – |
| O=C1CCCCC/C=C2/CC[C@H](Sc3ccccc3)[C@@H]12 | > 100 | – | – | – | – | – | > 100 | > 100 | > 100 | > 100 | > 100 | – | – | – | – | – | – | – | – | – |
| CN(Cc1cnc2nc(N)nc(N)c2n1)c1ccc(C(=O)NC(CCS(=O)(=O)O)C(=O)O)cc1 (stereo unspecified) | > 100 | > 100 | > 100 | > 100 | > 100 | – | > 100 | > 100 | > 100 | – | > 100 | > 100 | 96 | – | – | – | – | – | – | – |
| OC(c1cc(C(O)(C(F)(F)F)C(F)(F)F)ncn1)(C(F)(F)F)C(F)(F)F | > 10 | > 10 | > 10 | > 10 | > 10 | – | > 10 | > 10 | > 10 | > 10 | > 10 | > 10 | – | – | – | – | – | – | – | – |
| CC(=O)OCC1C(C(C)OC(C)=O)CCC2C1CCC1(C)C(OC(C)=O)CCC21 (stereo unspecified) | 32.9 | 33.5 | 37.4 | 42.1 | 41.9 | > 100 | 46.2 | 38.2 | > 100 | 49.5 | – | 65.7 | – | – | – | – | – | – | – | – |
| Nn1c(CNc2ccc(-c3nnc(Nc4ccc(Cl)cc4)n3N)cc2)nnc1Nc1ccc(Cl)cc1 | > 100 | > 100 | > 100 | > 100 | – | > 100 | – | > 100 | > 100 | > 100 | > 100 | – | – | – | – | – | – | – | – | – |
| C=CCN1CCC(OC(=O)C(O)(/C=C\CC)C2CCCC2)CC1 (stereo unspecified) | > 100 | – | > 100 | > 100 | > 100 | > 100 | > 100 | – | > 100 | > 100 | > 100 | > 100 | – | – | – | – | – | – | – | – |
| O=C(CSc1nc2ccc(I)cc2c(=O)n1Cc1ccccc1)N/N=C/c1ccccc1 | > 100 | > 100 | 34 | 36.1 | 33.6 | > 100 | 60.5 | > 100 | – | 32.6 | 28.6 | 79.9 | – | – | – | – | – | – | – | – |
| NS(=O)(=O)c1nnc(NC(=O)CCC(=O)O)s1 | > 100 | > 100 | > 100 | – | > 100 | > 100 | > 100 | > 100 | > 100 | > 100 | – | > 100 | – | – | – | – | – | – | – | – |
| COc1cc(Cn2c3c(c4c(CN(C)C)c(O)ccc42)C(=O)c2ccccc2C3=O)cc(OC)c1 | 40.4 | 34.5 | – | – | 90.5 | 42.5 | 28.3 | 38.5 | 27.7 | 27.6 | 8.07 | > 100 | – | – | – | – | – | – | – | – |
| CCCCCCc1nn2c(-c3ccc(C)cc3)nnc2s1 | > 100 | – | – | – | > 100 | > 100 | > 100 | > 100 | > 100 | > 100 | > 100 | > 100 | – | – | – | – | – | – | – | – |
| CN1CCc2c(sc3nc(Nc4ccccc4)n(N)c(=O)c23)C1 | > 100 | – | – | > 100 | > 100 | > 100 | > 100 | – | > 100 | > 100 | – | > 100 | – | – | – | – | – | – | – | – |
| Cc1cccc2c1Oc1cc(Cl)ccc1C2NC(=O)CCN1CCCCC1 (stereo unspecified) | 55.5 | 28.3 | 10.1 | – | – | 31.9 | 30.2 | 34.9 | 29.2 | 28 | 28.1 | 29.8 | – | – | – | – | – | – | – | – |
| C=C1c2nc3ccccc3n2C=C(c2ccc(Cl)cc2)N1c1ccc(OCCN2CCOCC2)cc1 | – | > 100 | > 100 | > 100 | > 100 | > 100 | – | > 100 | > 100 | > 100 | > 100 | > 100 | – | – | – | – | – | – | – | – |
| O=C(O)CC(NC(=O)C(F)(F)F)C(=O)NC1Cc2ccccc2OC1=O (stereo unspecified) | > 100 | > 100 | – | > 100 | > 100 | > 100 | > 100 | > 100 | > 100 | > 100 | > 100 | – | – | – | – | – | – | – | – | – |
| COc1cc(/C=C2\C(=O)N(c3cccc(Cl)c3)C(c3ccccc3)S2(=O)=O)cc(OC)c1OC (stereo unspecified) | > 100 | > 100 | > 100 | – | > 100 | > 100 | > 100 | > 100 | > 100 | > 100 | – | > 100 | – | – | – | – | – | – | – | – |
| CN(c1c(Cl)cccc1Cl)S(=O)(=O)c1ccccc1[N+](=O)[O-] | > 100 | > 100 | – | > 100 | > 100 | > 100 | > 100 | > 100 | > 100 | > 100 | > 100 | > 100 | – | – | – | – | – | – | – | – |
| C#CCNC(=O)CCC(N)C(=O)O (stereo unspecified) | > 100 | > 100 | > 100 | > 100 | > 100 | > 100 | > 100 | > 100 | > 100 | – | > 100 | – | – | – | – | – | – | – | – | – |
| CCN(CC)CCN1C(=O)c2cccc3c(-c4ccc5c(c4)ncn5C4CCCCC4)ccc(c23)C1=O | 3.18 | – | 1.65 | – | 3.64 | 4.04 | 4.62 | – | 2.28 | – | 2.4 | 6.22 | 1.05 | 1.32 | 0.372 | 1.73 | 1.72 | 1.75 | 1.65 | 0.583 |
